Results reported in the NIST ThermoML archive (doi:10.1016/j.fluid.2017.12.010).

Assay: xn = mol fraction of the nth substance listed
Conditions: Liquid, Vibrating tube method

CCCCCCCCCCCC [dodecane] + CCCCCCCCCC
Conditions	mass density [kg/m3]
342.94 K, 80000 kPa, x2 = 0.2297	765
342.94 K, 80000 kPa, x2 = 0.6433	758
342.94 K, 100000 kPa, x2 = 0.2297	774
342.94 K, 100000 kPa, x2 = 0.6433	768
342.95 K, 100 kPa, x2 = 0.7841	698
342.95 K, 1000 kPa, x2 = 0.7841	699
342.96 K, 5000 kPa, x2 = 0.7841	703
342.97 K, 10000 kPa, x2 = 0.7841	708
342.97 K, 20000 kPa, x2 = 0.7841	717
342.98 K, 30000 kPa, x2 = 0.7841	724
342.98 K, 40000 kPa, x2 = 0.7841	732
342.99 K, 60000 kPa, x2 = 0.7841	744
343 K, 80000 kPa, x2 = 0.7841	756
343 K, 99990 kPa, x2 = 0.7841	766
352.58 K, 100 kPa, x2 = 0	707
352.58 K, 1000 kPa, x2 = 0	708
352.58 K, 5000 kPa, x2 = 0	712
352.58 K, 10000 kPa, x2 = 0	716
352.58 K, 20000 kPa, x2 = 0	725
352.58 K, 30000 kPa, x2 = 0	733
352.58 K, 40000 kPa, x2 = 0	740
352.58 K, 50000 kPa, x2 = 0	747
352.58 K, 60000 kPa, x2 = 0	753
352.58 K, 70000 kPa, x2 = 0	759
352.58 K, 80000 kPa, x2 = 0	764
352.58 K, 90000 kPa, x2 = 0	769
352.58 K, 100000 kPa, x2 = 0	774
352.73 K, 100 kPa, x2 = 0.2297	702
352.74 K, 1000 kPa, x2 = 0.2297	703
352.74 K, 5000 kPa, x2 = 0.2297	707
352.75 K, 10000 kPa, x2 = 0.2297	712
352.75 K, 20000 kPa, x2 = 0.2297	721
352.75 K, 30000 kPa, x2 = 0.2297	729
352.75 K, 40000 kPa, x2 = 0.2297	736
352.76 K, 60000 kPa, x2 = 0.2297	749
352.76 K, 80000 kPa, x2 = 0.2297	760
352.76 K, 100000 kPa, x2 = 0.2297	770
352.78 K, 100 kPa, x2 = 0.6433	694
352.78 K, 1000 kPa, x2 = 0.6433	695
352.78 K, 5000 kPa, x2 = 0.6433	699
352.78 K, 10000 kPa, x2 = 0.6433	704
352.78 K, 20000 kPa, x2 = 0.6433	713
352.78 K, 30000 kPa, x2 = 0.6433	721
352.78 K, 40000 kPa, x2 = 0.6433	729
352.79 K, 5000 kPa, x2 = 0.4436	703
352.79 K, 60000 kPa, x2 = 0.6433	742
352.79 K, 79990 kPa, x2 = 0.6433	754
352.79 K, 100000 kPa, x2 = 0.6433	764
352.8 K, 1000 kPa, x2 = 0.4436	699
352.8 K, 10000 kPa, x2 = 0.4436	708
352.8 K, 20000 kPa, x2 = 0.4436	717
352.81 K, 100 kPa, x2 = 0.4436	698
352.81 K, 1000 kPa, x2 = 0.7841	692
352.81 K, 30000 kPa, x2 = 0.4436	725
352.81 K, 40000 kPa, x2 = 0.4436	733
352.81 K, 60000 kPa, x2 = 0.4436	746
352.81 K, 99990 kPa, x2 = 0.4436	767
352.82 K, 100 kPa, x2 = 0.7841	691
352.82 K, 80000 kPa, x2 = 0.4436	757
352.83 K, 5000 kPa, x2 = 0.7841	696
352.84 K, 10000 kPa, x2 = 0.7841	701
352.84 K, 20000 kPa, x2 = 0.7841	711
352.85 K, 30000 kPa, x2 = 0.7841	719
352.85 K, 40000 kPa, x2 = 0.7841	726
352.85 K, 60000 kPa, x2 = 0.7841	740
352.85 K, 80000 kPa, x2 = 0.7841	751
352.85 K, 100000 kPa, x2 = 0.7841	762
362.48 K, 5000 kPa, x2 = 0	704
362.48 K, 10000 kPa, x2 = 0	709
362.48 K, 20000 kPa, x2 = 0	718
362.48 K, 30000 kPa, x2 = 0	726
362.48 K, 50000 kPa, x2 = 0	741
362.48 K, 80000 kPa, x2 = 0	759
362.48 K, 90000 kPa, x2 = 0	764
362.49 K, 100 kPa, x2 = 0	699
362.49 K, 1000 kPa, x2 = 0	700
362.49 K, 40000 kPa, x2 = 0	734
362.49 K, 60000 kPa, x2 = 0	747
362.49 K, 70000 kPa, x2 = 0	753
362.49 K, 100000 kPa, x2 = 0	769
362.57 K, 100 kPa, x2 = 0.2297	695
362.57 K, 1000 kPa, x2 = 0.2297	696
362.58 K, 5000 kPa, x2 = 0.2297	700
362.58 K, 10000 kPa, x2 = 0.2297	705
362.58 K, 20000 kPa, x2 = 0.2297	714
362.58 K, 30000 kPa, x2 = 0.2297	722
362.59 K, 40000 kPa, x2 = 0.2297	730
362.59 K, 60000 kPa, x2 = 0.2297	743
362.59 K, 80000 kPa, x2 = 0.2297	755
362.59 K, 100000 kPa, x2 = 0.2297	765
362.61 K, 100 kPa, x2 = 0.4436	690
362.61 K, 1000 kPa, x2 = 0.4436	691
362.62 K, 100 kPa, x2 = 0.6433	686
362.62 K, 1000 kPa, x2 = 0.6433	687
362.62 K, 5000 kPa, x2 = 0.4436	696
362.62 K, 5000 kPa, x2 = 0.6433	691
362.62 K, 10000 kPa, x2 = 0.4436	701
362.62 K, 10000 kPa, x2 = 0.6433	697
362.62 K, 20000 kPa, x2 = 0.4436	710
362.62 K, 30000 kPa, x2 = 0.4436	719
362.62 K, 40000 kPa, x2 = 0.4436	726
362.62 K, 60000 kPa, x2 = 0.4436	740
362.62 K, 80000 kPa, x2 = 0.4436	752
362.63 K, 20000 kPa, x2 = 0.6433	706
362.63 K, 30000 kPa, x2 = 0.6433	715
362.63 K, 40000 kPa, x2 = 0.6433	722
362.63 K, 60000 kPa, x2 = 0.6433	736
362.63 K, 80000 kPa, x2 = 0.6433	748
362.63 K, 99990 kPa, x2 = 0.6433	758
362.63 K, 100000 kPa, x2 = 0.4436	762
362.64 K, 100 kPa, x2 = 0.7841	682
362.64 K, 1000 kPa, x2 = 0.7841	683
362.65 K, 5000 kPa, x2 = 0.7841	688
362.65 K, 10000 kPa, x2 = 0.7841	693
362.66 K, 20000 kPa, x2 = 0.7841	703
362.66 K, 30000 kPa, x2 = 0.7841	712
362.66 K, 40000 kPa, x2 = 0.7841	719
362.66 K, 60000 kPa, x2 = 0.7841	733
362.66 K, 80000 kPa, x2 = 0.7841	745
362.66 K, 100010 kPa, x2 = 0.7841	756
